Results from patent US12594271B2, “Combination therapy for cancer” (Health Research, Inc., priority 2019, dated 2026).
“Also recorded” adds a separate entry of the source.

System: MDSCs
Assay: MDSC suppression assay: inhibition of T cell proliferation by in vitro generated MDSCs
Format: cell-based, mouse
Description: FIG. 2. […] (A) MDSCs were produced in vitro from mouse bone marrow cells using GM-CSF and G-CSF±BRQ (1 μM) or ATRA (10 μM) at the start of the 4-day culture. Cells tested for their ability to inhibit T cell proliferation (1:1 ratio), as in FIG. 5. Fresh BM=Uncultured bone marrow cells. (B) Similar to A, except that uridine (200 μM) was added to rescue the effect of BRQ. (C) Expression of IRF8 (upper) or SLFN4 (lower) was analyzed by qRT-PCR in Lin^− BM cells cultured as in A for 2 days. Data normalized to the vehicle.
In Vitro Development of MDSCs. Unfractionated mouse bone marrow cells were cultured in dishes with recombinant mouse G-CSF and recombinant mouse GM-CSF (40 ng/ml of each cytokine) for 96 hours to produce MDSCs, as described (Marigo et al. Immunity 32:790-802, 2010). After culture, cells were collected and analyzed by flow cytometry for the indicated cell surface markers. Uncultured or fresh bone marrow (BM) cells served as a negative control.
Cultured Cells Develop Potent Immunosuppressive Capacity. Using the methods described for FIG. 4, experiments were then performed to determine whether the cells generated from this BM culture system functionally behaved as MDSCs, based on their ability to inhibit T cell proliferation in vitro. To that end, fresh BM (i.e., no in vitro culture) or cultured BM cells (i.e., MDSCs at two different MDSC-to-T cell ratios of 1:1 or 1:2) were co-mixed in 96-well plates with CellTrace Violet (CTV)—stained syngeneic naïve splenocytes as a source of T cells and stimulated with or without soluble agonistic anti-CD3 monoclonal antibody (mAb) (1 μg/ml) for 72 hours. After co-culture, CTV dye dilution in the gated CD4^+ or CD8^+ T cell fractions within the splenocyte populations was analyzed by flow cytometry to determine the extent of proliferation based on dye dilution. In FIG. 5, top panels show CTV dye dilution, as determined by flow cytometry and depicted as a histogram; bottom panels indicate the percentage of proliferation, based on quantification of the histogram data. […]

## Cc1c(-c2ccc(-c3ccccc3F)cc2)nc2ccc(F)cc2c1C(=O)O [BRQ, 6-Fluoro-2-(2′-fluoro-[1,1′-biphenyl]-4-yl)-3-methylquinoline-4-carboxylic acid]
BRQ 1 μM at start of 4-day culture, MDSC:T cell 1:1
  ability of in vitro generated MDSCs to inhibit CD4+ or CD8+ T cell proliferation: inhibits MDSC-mediated immune suppression in vitro; also recorded: more effective than ATRA in limiting the formation of immune suppressive cells in vitro; also recorded: significantly reduced the ability of these in vitro-generated MDSCs to inhibit T cell proliferation; also recorded: mitigates MDSC suppressive activity; also recorded: significantly less suppressive to CD4^+ or CD8^+ T cell proliferation compared to cultures containing ATRA
BRQ 1 μM plus extracellular uridine 200 μM
  ability of in vitro generated MDSCs to inhibit T cell proliferation, uridine rescue: exogenously supplied uridine blocked the effect of BRQ; also recorded: the addition of uridine antagonized the effect of BRQ and restored MDSC suppressive activity
